Experimental data published in ChEMBL document CHEMBL1201862, “PubChem BioAssay data set” (2004).
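Each compound was tested at five concentrations against cells in 96-well plates for 48 hours. At the GI50, growth is halved.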 Calls of active or inactive are those of the source. Cut-off read from the data, not from the text of the source: active = GI50 up to about 1.1 µM and inactive = higher.

How the values were obtained:
Assay in all cases: growth of human tumour cells (NCI), 48 h
MDA-MB-435 = tested on: MDA-MB-435
HL-60 = tested on: HL-60
EKVX = tested on: EKVX
Hs-578T = tested on: Hs-578T
NCI-H460 = tested on: NCI-H460
UO-31 = tested on: UO-31
IGROV-1 = tested on: IGROV-1
RXF 393 = tested on: RXF 393
TK-10 = tested on: TK-10
SK-MEL-2 = tested on: SK-MEL-2
SK-MEL-28 = tested on: SK-MEL-28
HCT-15 = tested on: HCT-15
ACHN = tested on: ACHN
MDA-MB-231 = tested on: MDA-MB-231
Malme-3M = tested on: Malme-3M
SK-OV-3 = tested on: SK-OV-3
OVCAR-4 = tested on: OVCAR-4
SR = tested on: SR
MOLT-4 = tested on: MOLT-4
HOP-92 = tested on: HOP-92

Cc1ccc(C)c(NC(=O)/C(=N\N)C(c2cnc3ccc([N+](=O)[O-])cc3n2)[N+](=O)[O-])c1 (stereo not given)
GI50 (MDA-MB-435): 62.5 µM (inactive) | GI50 (HL-60): 52 µM (inactive) | GI50 (EKVX): 43.3 µM (inactive) | GI50 (Hs-578T): 80.4 µM (inactive) | GI50 (NCI-H460): 70.3 µM (inactive) | GI50 (UO-31): 23.6 µM (inactive) | GI50 (IGROV-1): 51.9 µM (inactive) | GI50 (RXF 393): > 100 µM (inactive) | GI50 (TK-10): > 100 µM (inactive) | GI50 (SK-MEL-2): 71.6 µM (inactive) | GI50 (SK-MEL-28): > 100 µM (inactive) | GI50 (HCT-15): > 100 µM | GI50 (ACHN): 14.5 µM (inactive) | GI50 (MDA-MB-231): 37.8 µM (inactive) | GI50 (Malme-3M): 66.8 µM (inactive) | GI50 (SK-OV-3): 67.5 µM (inactive) | GI50 (OVCAR-4): 18.4 µM (inactive) | GI50 (SR): 74.1 µM (inactive) | GI50 (MOLT-4): 54.5 µM (inactive) | GI50 (HOP-92): > 100 µM (inactive)

C[N+](C)(C)CC(=O)N/N=C(\C(=O)NC1=C(Cl)C(=O)c2ccccc2C1=O)C(C#N)c1nc(-c2ccc([N+](=O)[O-])cc2)cs1 (stereo not given)
GI50 (MDA-MB-435): 1.87 µM (inactive) | GI50 (HL-60): 5.73 µM (inactive) | GI50 (EKVX): 14.1 µM (inactive) | GI50 (Hs-578T): 7.85 µM (inactive) | GI50 (NCI-H460): 4.31 µM (inactive) | GI50 (UO-31): 15.6 µM (inactive) | GI50 (IGROV-1): 6.71 µM (inactive) | GI50 (RXF 393): 11.2 µM (inactive) | GI50 (TK-10): 31 µM (inactive) | GI50 (SK-MEL-2): 4.46 µM (inactive) | GI50 (SK-MEL-28): 6.1 µM (inactive) | GI50 (HCT-15): 5.36 µM | GI50 (ACHN): 10.6 µM (inactive) | GI50 (MDA-MB-231): 10.3 µM (inactive) | GI50 (Malme-3M): 1.86 µM (inactive) | GI50 (SK-OV-3): 21.1 µM (inactive) | GI50 (OVCAR-4): 10.1 µM (inactive) | GI50 (SR): 5.62 µM (inactive) | GI50 (MOLT-4): 13.4 µM (inactive) | GI50 (HOP-92): 13 µM (inactive)

Cc1cc(S(=O)(=O)NC(=C(C#N)C#N)[n+]2ccc(N(C)C)cc2)c([S-])cc1Cl
GI50 (MDA-MB-435): > 100 µM (inactive) | GI50 (HL-60): > 100 µM (inactive) | GI50 (EKVX): > 100 µM (inactive) | GI50 (Hs-578T): > 100 µM (inactive) | GI50 (NCI-H460): > 100 µM (inactive) | GI50 (UO-31): > 100 µM (inactive) | GI50 (IGROV-1): > 100 µM (inactive) | GI50 (RXF 393): > 100 µM (inactive) | GI50 (TK-10): > 100 µM (inactive) | GI50 (SK-MEL-2): > 100 µM (inactive) | GI50 (SK-MEL-28): > 100 µM (inactive) | GI50 (HCT-15): > 100 µM | GI50 (ACHN): > 100 µM (inactive) | GI50 (MDA-MB-231): > 100 µM (inactive) | GI50 (Malme-3M): > 100 µM (inactive) | GI50 (SK-OV-3): > 100 µM (inactive) | GI50 (OVCAR-4): 99.5 µM (inactive) | GI50 (SR): > 100 µM (inactive) | GI50 (MOLT-4): > 100 µM (inactive) | GI50 (HOP-92): 28.7 µM (inactive)
